Laboratory results as given in US9062046B2, “Substituted imidazoquinoline derivatives as kinase inhibitors” (Piramal Enterprises Limited, priority 2011, dated 2015).

Experiments:
PC3 (prostate cell line) = experiment: Cytotoxicity assay (propidium iodide assay), PC3; assay type: cell-based; details: Homo sapiens, PC-3; PC3 cells, 1 μM, 48 h treatment
Experimental: (§1) The assay was designed as in the reference, Anticancer Drugs, 2002, 13, 1-8, the disclosure of which is incorporated by reference for the teaching of the assay.
(§2) Cells from cell lines A2780 (ovarian cell line) and PC3 (prostate cell line) (both from ATCC) were seeded at a density of 3000 cells/well in a white opaque 96-well plate. Following incubation at 37° C./5% CO2 for a period of 18-24 h, the cells were treated with various concentrations (stock solution was prepared in DMSO and subsequent dilutions were made in media as per ATCC guidelines) of the test compounds for a period of 48 h. At the end of treatment, the culture medium was discarded, the cells were washed with 1×PBS and 200 μl of 7 μg/ml propidium iodide was added to each well. The plates were frozen at −70° C. overnight. For analysis, the plates were warmed to RT, allowed to thaw and were read in PoleStar fluorimeter with the fluorescence setting. The percentage of viable cells in the non-treated set of wells was considered to be 100 and the percentage viability following treatment was calculated accordingly. IC50 values were calculated from graphs plotted using these percentages.

[1] = tested on: A2780 (ovarian cell line); experiment: Cytotoxicity assay (propidium iodide assay), A2780; assay type: cell-based; details: Homo sapiens; A2780 cells, 1 μM, 48 h treatment
Experimental: as §1, §2

SMILES	inhibition at 1 µM (PC3 (prostate cell line))	inhibition at 1 µM [1]
COc1ccc(-n2c(=NC#N)n(C)c3cnc4ccc(-c5ccncc5)cc4c32)cn1 [Example 14, N-(1-(6-methoxypyridin-3-yl)-3-methyl-8-(pyridin-4-yl)-1H-imidazo[4,5-c]quinolin-2(3H)-ylidene)cyanamide]	30 to 70%	≥ 70%
COc1ccc(-n2c(=NC#N)n(C)c3cnc4ccc(-c5cncc(C(F)(F)F)c5)cc4c32)cn1 [Example 25, N-(1-(6-methoxypyridin-3-yl)-3-methyl-8-(5-(trifluoromethyl)pyridin-3-yl)-1H-imidazo[4,5-c]quinolin-2(3H)-ylidene)cyanamide]	30 to 70%	≥ 70%
COc1ccc(-n2c(=NC#N)n(C)c3cnc4ccc(-c5ccc6cccnc6c5)cc4c32)cn1 [Example 26, N-(1-(6-methoxypyridin-3-yl)-3-methyl-8-(quinolin-7-yl)-1H-imidazo[4,5-c]quinolin-2(3H)-ylidene)cyanamide]	30 to 70%	≥ 70%
COc1ccc(-n2c(=NC#N)n(C)c3cnc4ccc(-c5ccccc5OC(C)C)cc4c32)cn1 [Example 27, N-(8-(2-isopropoxyphenyl)-1-(6-methoxypyridin-3-yl)-3-methyl-1H-imidazo[4,5-c]quinolin-2(3H)-ylidene)cyanamide]	< 30%	< 30%
COc1ccc(-n2c(=NC#N)n(C)c3cnc4ccc(-c5cccc(Cl)c5)cc4c32)cn1 [Example 28, N-(8-(3-chlorophenyl)-1-(6-methoxypyridin-3-yl)-3-methyl-1H-imidazo[4,5-c]quinolin-2(3H)-ylidene)cyanamide]	< 30%	30 to 70%
COc1ccc(-n2c(=NC#N)n(C)c3cnc4ccc(-c5cccc(C)c5)cc4c32)cn1 [Example 29, N-(1-(6-methoxypyridin-3-yl)-3-methyl-8-m-tolyl-1H-imidazo[4,5-c]quinolin-2(3H)-ylidene)cyanamide]	< 30%	30 to 70%
COc1ccc(-n2c(=NC#N)n(C)c3cnc4ccc(-c5ccc(C#N)cc5)cc4c32)cn1 [Example 30, N-(8-(4-cyanophenyl)-1-(6-methoxypyridin-3-yl)-3-methyl-1H-imidazo[4,5-c]quinolin-2(3H)-ylidene)cyanamide]	< 30%	< 30%
COc1ccc(-n2c(=NC#N)n(C)c3cnc4ccc(-c5ccccc5C)cc4c32)cn1 [Example 34, N-(1-(6-methoxypyridin-3-yl)-3-methyl-8-o-tolyl-1H-imidazo[4,5-c]quinolin-2(3H)-ylidene)cyanamide]	< 30%	< 30%
COc1ccc(-n2c(=NC#N)n(C)c3cnc4ccc(-c5cncc6ccccc56)cc4c32)cn1 [Example 35, N-(8-(isoquinolin-4-yl)-1-(6-methoxypyridin-3-yl)-3-methyl-1H-imidazo[4,5-c]quinolin-2(3H)-ylidene)cyanamide]	30 to 70%	≥ 70%
COc1ccc(-n2c(=NC#N)n(C)c3cnc4ccc(-c5ccc(OC)c(OC)c5)cc4c32)cn1 [Example 36, N-(8-(3,4-dimethoxyphenyl)-1-(6-methoxypyridin-3-yl)-3-methyl-1H-imidazo[4,5-c]quinolin-2(3H)-ylidene)cyanamide]	≥ 70%	≥ 70%
COc1ccc(-n2c(=NC#N)n(C)c3cnc4ccc(-c5ccc(SC(C)C)cc5)cc4c32)cn1 [Example 37, N-(8-(4-(isopropylthio)phenyl)-1-(6-methoxypyridin-3-yl)-3-methyl-1H-imidazo[4,5-c]quinolin-2(3H)-ylidene)cyanamide]	< 30%	30 to 70%
COc1ccc(-n2c(=NC#N)n(C)c3cnc4ccc(-c5cccc(O)c5)cc4c32)cn1 [Example 38, N-(8-(3-hydroxyphenyl)-1-(6-methoxypyridin-3-yl)-3-methyl-1H-imidazo[4,5-c]quinolin-2(3H)-ylidene)cyanamide]	30 to 70%	≥ 70%
COc1ccc(-n2c(=NC#N)n(C)c3cnc4ccc(-c5cnccc5F)cc4c32)cn1 [Example 39, N-(8-(4-fluoropyridin-3-yl)-1-(6-methoxypyridin-3-yl)-3-methyl-1H-imidazo[4,5-c]quinolin-2(3H)-ylidene)cyanamide]	30 to 70%	30 to 70%
COc1ccc(-n2c(=NC#N)n(C)c3cnc4ccc(-c5cccc(F)c5)cc4c32)cn1 [Example 40, N-(8-(3-fluorophenyl)-1-(6-methoxypyridin-3-yl)-3-methyl-1H-imidazo[4,5-c]quinolin-2(3H)-ylidene)cyanamide]	< 30%	30 to 70%
COc1ccc(-n2c(=NC#N)n(C)c3cnc4ccc(-c5cccc(C(F)(F)F)c5)cc4c32)cn1 [Example 41, N-(1-(6-methoxypyridin-3-yl)-3-methyl-8-(3-(trifluoromethyl)phenyl)-1H-imidazo[4,5-c]quinolin-2(3H)-ylidene)cyanamide]	30 to 70%	30 to 70%
COc1ccc(-n2c(=NC#N)n(C)c3cnc4ccc(-c5ccc(C)cc5)cc4c32)cn1 [Example 44, N-(1-(6-methoxypyridin-3-yl)-3-methyl-8-p-tolyl-1H-imidazo[4,5-c]quinolin-2(3H)-ylidene)cyanamide]	< 30%	30 to 70%
COc1ccc(-n2c(=NC#N)n(C)c3cnc4ccc(-c5cccnc5C)cc4c32)cn1 [Example 45, N-(1-(6-methoxypyridin-3-yl)-3-methyl-8-(2-methylpyridin-3-yl)-1H-imidazo[4,5-c]quinolin-2(3H)-ylidene)cyanamide]	< 30%	30 to 70%
COc1ccc(-n2c(=NC#N)n(C)c3cnc4ccc(-c5ccc(O)cc5)cc4c32)cn1 [Example 46, N-(8-(4-hydroxyphenyl)-1-(6-methoxypyridin-3-yl)-3-methyl-1H-imidazo[4,5-c]quinolin-2(3H)-ylidene)cyanamide]	30 to 70%	≥ 70%
COc1ccc(-n2c(=NC#N)n(C)c3cnc4ccc(-c5cc(F)ccc5OC)cc4c32)cn1 [Example 47, N-(8-(5-fluoro-2-methoxyphenyl)-1-(6-methoxypyridin-3-yl)-3-methyl-1H-imidazo[4,5-c]quinolin-2(3H)-ylidene)cyanamide]	< 30%	< 30%
COc1ccc(-c2ccc3ncc4c(c3c2)n(-c2ccc(OC)nc2)c(=NC#N)n4C)cn1 [Example 48, N-(1,8-bis(6-methoxypyridin-3-yl)-3-methyl-1H-imidazo[4,5-c]quinolin-2(3H)-ylidene)cyanamide]	30 to 70%	≥ 70%
COc1ccc(-n2c(=NC#N)n(C)c3cnc4ccc(-c5ccccc5OC)cc4c32)cn1 [Example 49, N-(8-(2-methoxyphenyl)-1-(6-methoxypyridin-3-yl)-3-methyl-1H-imidazo[4,5-c]quinolin-2(3H)-ylidene)cyanamide]	< 30%	30 to 70%
Cn1c(=NC#N)n(-c2ccc(C(C)(C)C#N)nc2)c2c3cc(-c4ccc(O)cc4)ccc3ncc21 [Example 50, N-(1-(6-(2-cyanopropan-2-yl)pyridin-3-yl)-8-(4-hydroxyphenyl)-3-methyl-1H-imidazo[4,5-c]quinolin-2(3H)-ylidene)cyanamide]	30 to 70%	≥ 70%
COc1ccc(-c2ccc3ncc4c(c3c2)n(-c2ccc(C(C)(C)C#N)nc2)c(=NC#N)n4C)cn1 [Example 51, N-(1-(6-(2-cyanopropan-2-yl)pyridin-3-yl)-8-(6-methoxypyridin-3-yl)-3-methyl-1H-imidazo[4,5-c]quinolin-2(3H)-ylidene)cyanamide]	30 to 70%	≥ 70%
COc1ccc(F)cc1-c1ccc2ncc3c(c2c1)n(-c1ccc(C(C)(C)C#N)nc1)c(=NC#N)n3C [Example 52, N-(1-(6-(2-cyanopropan-2-yl)pyridin-3-yl)-8-(5-fluoro-2-methoxyphenyl)-3-methyl-1H-imidazo[4,5-c]quinolin-2(3H)-ylidene)cyanamide]	< 30%	< 30%
COc1ccccc1-c1ccc2ncc3c(c2c1)n(-c1ccc(C(C)(C)C#N)nc1)c(=NC#N)n3C [Example 53, N-(1-(6-(2-cyanopropan-2-yl)pyridin-3-yl)-8-(2-methoxyphenyl)-3-methyl-1H-imidazo[4,5-c]quinolin-2(3H)-ylidene)cyanamide]	< 30%	30 to 70%
Cn1c(=NC#N)n(-c2ccc(C(C)(C)C#N)nc2)c2c3cc(-c4ccc5c(c4)OCO5)ccc3ncc21 [Example 54, N-(8-(benzo[d][1,3]dioxol-5-yl)-1-(6-(2-cyanopropan-2-yl)pyridin-3-yl)-3-methyl-1H-imidazo[4,5-c]quinolin-2(3H)-ylidene)cyanamide]	< 30%	30 to 70%
COc1ncc(-c2ccc3ncc4c(c3c2)n(-c2ccc(C(C)(C)C#N)nc2)c(=NC#N)n4C)c(OC)n1 [Example 55, N-(1-(6-(2-cyanopropan-2-yl)pyridin-3-yl)-8-(2,4-dimethoxypyrimidin-5-yl)-3-methyl-1H-imidazo[4,5-c]quinolin-2(3H)-ylidene)cyanamide]	30 to 70%	≥ 70%
